Data as given in patent publication US20250049970A1, “DLL3 TARGETING PEPTIDES AND CONSTRUCTS THEREOF” (MARIANA ONCOLOGY INC., priority 2023, published 2025).
*1 amine or outer side, *2 acyl side, *3 side chain or, on linkers, in order; H or OH if unused. Where a SMILES comes first, the peptide text is derived from it. Bridges are numbered along the chain shown (N, C = ends). [ ]: non-standard residue; d: D form. The star is where a group is joined. X9 = CSCC[C@H](NC(=O)c1ccc(CNC(=O)CN2CCN(CC(=O)O)CCN(CC(=O)O)CCN(CC(=O)O)CC2)cc1)C(=O)N[C@H](C(=O)N[C@@H](CCCCN*)C(=O)O)C(C)C; Ala(piperidin-4-yl) = O=C([C@H](CC1CCN([*:3])CC1)N[*:1])[*:2]; DOTA = O=C(O)CN1CCN(CC(=O)O)CCN(CC(=O)*)CCN(CC(=O)O)CC1; Me3N+(CH2)2O(CH2)2O(CH2)2CO = C[N+](C)(C)CCOCCOCCC(=O)*; X5 = O=C(Cc1ccc(Br)cc1)NCCOCCOCCOCCOCCOCCOCCOCCOCC(=O)*; Trp(7-OMe) = COc1cccc2c(C[C@H](N)C(=O)O)c[nH]c12; Ala(morpholin-4-yl) = N[C@@H](CN1CCOCC1)C(=O)O; 2Nal = N[C@@H](Cc1ccc2ccccc2c1)C(=O)O; NMetBuAla = CN[C@@H](CC(C)(C)C)C(=O)O; tBuAla = CC(C)(C)C[C@H](N)C(=O)O; Chg = N[C@H](C(=O)O)C1CCCCC1; Tle = CC(C)(C)[C@H](N)C(=O)O; αMeP = C[C@@]1(C(=O)O)CCCN1; Aze = O=C(O)[C@@H]1CCN1; Nva = CCC[C@H](N)C(=O)O; CH2 = C([*:1])[*:2]

Target: T1, DLL3 (Homo sapiens, UniProt Q9NYJ7)
T1 sequence (Q9NYJ7 27-618): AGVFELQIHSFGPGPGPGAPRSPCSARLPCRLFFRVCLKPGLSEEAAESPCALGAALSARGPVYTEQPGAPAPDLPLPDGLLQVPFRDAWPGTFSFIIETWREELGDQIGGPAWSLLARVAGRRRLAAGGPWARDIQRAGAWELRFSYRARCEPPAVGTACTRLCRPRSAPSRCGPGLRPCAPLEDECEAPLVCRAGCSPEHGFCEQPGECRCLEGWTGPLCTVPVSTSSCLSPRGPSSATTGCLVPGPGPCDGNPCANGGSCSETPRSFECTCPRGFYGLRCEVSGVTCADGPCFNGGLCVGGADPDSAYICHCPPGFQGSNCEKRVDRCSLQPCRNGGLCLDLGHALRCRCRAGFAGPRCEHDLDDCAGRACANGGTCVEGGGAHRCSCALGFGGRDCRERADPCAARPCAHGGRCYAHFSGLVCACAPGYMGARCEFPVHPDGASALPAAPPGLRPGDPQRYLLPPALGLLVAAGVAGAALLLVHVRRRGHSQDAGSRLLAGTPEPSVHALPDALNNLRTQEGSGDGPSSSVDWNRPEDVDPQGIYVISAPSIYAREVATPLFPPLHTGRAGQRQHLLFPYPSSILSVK
Test: SPR KD, biotinylated human DLL3 on streptavidin chip (Table 8)
Design: biotin (biotinylated)
Conditions: SPR KD, biotinylated human DLL3 on streptavidin sensor chip, 25° C., 1:1 binding model
Description: Biotinylated target ligand human DLL3 was immobilized on a streptavidin sensor chip. A reference surface was set up for nonspecific binding and refractive index changes. […] Sensorgram curves were fitted with 1:1 binding model, and affinity and kinetic parameters were obtained using Biacore Insight evaluation 4.0. software.

Compound	Kd [nM]
CC(=O)N[C@@H](Cc1c[nH]c2ccccc12)C(=O)N[C@H](C(=O)N[C@H](C(=O)N[C@H]1CSSC[C@@H](C(=O)N[C@@H](Cc2c[nH]c3ccccc23)C(=O)N2CCC[C@H]2C(=O)N[C@H](CCCCNC(=O)COCCOCCOCCOCCOCCOCCOCCOCCNC(=O)Cc2ccc(Br)cc2)C(N)=O)NC(=O)[C@H](CC(=O)O)NC(=O)[C@H](CCCCNC(=O)CN2CCN(CC(=O)O)CCN(CC(=O)O)CCN(CC(=O)O)CC2)NC(=O)[C@H](Cc2ccc3ccccc3c2)NC(=O)[C@H](CC(N)=O)NC(=O)[C@H](CC2CCNCC2)NC1=O)C1CCCCC1)[C@@H](C)O [compound 421] (Ac-WT[Chg]C[Ala(piperidin-4-yl)]N[2Nal]K(DOTA)DCWP[dK](X5)-NH2; disulfide 4-10)	< 1
CC(=O)N[C@@H](Cc1c[nH]c2ccccc12)C(=O)N[C@H](C(=O)N[C@H](C(=O)N[C@H]1CSSC[C@@H](C(=O)N[C@@H](Cc2c[nH]c3ccccc23)C(=O)N2CCC[C@H]2C(N)=O)NC(=O)[C@H](CC(=O)O)NC(=O)[C@H](CCCCNC(=O)CN2CCN(CC(=O)O)CCN(CC(=O)O)CCN(CC(=O)O)CC2)NC(=O)[C@H](Cc2ccc3ccccc3c2)NC(=O)[C@H](CC(N)=O)NC(=O)[C@H](CN2CCOCC2)NC1=O)C1CCCCC1)[C@@H](C)O [compound 325, Ac-W-T-(Chg)-C(3)-[3-(1-morpholinyl)-Ala]-N-(2Nal)-Lys(DOTA)-D-C(3)-W-P-CONH2] (Ac-WT[Chg]C[Ala(morpholin-4-yl)]N[2Nal]K(DOTA)DCWP-NH2; disulfide 4-10)	< 1

Same assay, conditions: biotinylated human DLL3 on streptavidin sensor chip, 25° C., 1:1 binding model; read-out: SPR KD

Compound	Kd [nM]
CC[C@H](C)[C@H](NC(=O)[C@@H](NC(=O)[C@H](Cc1c[nH]c2ccccc12)NC(=O)[C@H](CCSC)NC(C)=O)[C@@H](C)O)C(=O)N[C@H]1CSSC[C@@H](C(=O)N[C@@H](Cc2c[nH]c3ccccc23)C(=O)N2CCC[C@H]2C(N)=O)NC(=O)[C@H](C)NC(=O)[C@H](Cc2cnc[nH]2)NC(=O)[C@H](Cc2c[nH]c3ccccc23)NC(=O)[C@H](CC(N)=O)NC(=O)[C@H](CC(N)=O)NC1=O [compound 37, Ac-M-W-T-I-C(3)-N-N-W-H-(L-Ala)-C(3)-W-P-CONH2] (Ac-MWTICNNWHACWP-NH2; disulfide 5-11)	10 to 100
CC(=O)N[C@@H](Cc1c[nH]c2ccccc12)C(=O)N[C@H](C(=O)N[C@H](C(=O)N[C@H]1CSSC[C@@H](C(=O)N[C@@H](Cc2c[nH]c3ccccc23)C(=O)N2CCC[C@H]2C(N)=O)NC(=O)[C@H](CC(=O)O)NC(=O)[C@H](Cc2cnc[nH]2)NC(=O)[C@H](Cc2c[nH]c3ccccc23)NC(=O)[C@H](CC(N)=O)NC(=O)[C@H](CC(N)=O)NC1=O)C(C)(C)C)[C@@H](C)O [compound 336, Ac-W-T-(Tbg)-C(3)-N-N-W-H-D-C(3)-W-P-CONH2] (Ac-WT[Tle]CNNWHDCWP-NH2; disulfide 4-10)	1 to 10
CC[C@H](C)[C@H](NC(=O)[C@@H](NC(=O)[C@H](Cc1c[nH]c2ccccc12)NC(C)=O)[C@@H](C)O)C(=O)N[C@H]1CSSC[C@@H](C(=O)N[C@@H](Cc2c[nH]c3ccccc23)C(=O)N2CCC[C@H]2C(N)=O)NC(=O)[C@H](CC(=O)O)NC(=O)[C@H](Cc2c[nH]cn2)NC(=O)[C@H](Cc2ccc3ccccc3c2)NC(=O)[C@H](CCCCNC(=O)CN2CCN(CC(=O)O)CCN(CC(=O)O)CCN(CC(=O)O)CC2)NC(=O)[C@H](CC(N)=O)NC1=O [compound 250, Ac-W-T-I-C(3)-N-Lys(DOTA)-(2Nal)-H-D-C(3)-W-P-CONH2] (Ac-WTICNK(DOTA)[2Nal]HDCWP-NH2; disulfide 4-10)	1 to 10
CSCC[C@H](NC(C)=O)C(=O)N[C@@H](Cc1c[nH]c2ccccc12)C(=O)N[C@H](C(=O)N[C@H](C(=O)N[C@H]1CSSC[C@@H](C(=O)N[C@@H](Cc2c[nH]c3ccccc23)C(=O)N2CCC[C@H]2C(N)=O)NC(=O)[C@H](CC(=O)O)NC(=O)[C@H](Cc2cnc[nH]2)NC(=O)[C@H](Cc2c[nH]c3ccccc23)NC(=O)[C@H](CC(N)=O)NC(=O)[C@H](CC(N)=O)NC1=O)C1CCCCC1)[C@@H](C)O [compound 44, Ac-M-W-T-(Chg)-C(3)-N-N-W-H-D-C(3)-W-P-CONH2] (Ac-MWT[Chg]CNNWHDCWP-NH2; disulfide 5-11)	1 to 10
CC[C@H](C)[C@H](NC(=O)[C@@H](NC(=O)[C@H](Cc1c[nH]c2ccccc12)NC(C)=O)[C@@H](C)O)C(=O)N[C@H]1CSSC[C@@H](C(=O)N[C@@H](Cc2c[nH]c3ccccc23)C(=O)N2CC[C@H]2C(N)=O)NC(=O)[C@H](CC(=O)O)NC(=O)[C@H](Cc2cnc[nH]2)NC(=O)[C@H](Cc2c[nH]c3ccccc23)NC(=O)[C@H](CC(N)=O)NC(=O)[C@H](CC(N)=O)NC1=O [compound 335, Ac-W-T-I-C(3)-N-N-W-H-D-C(3)-W-(Aze)-CONH2] (Ac-WTICNNWHDCW[Aze]-NH2; disulfide 4-10)	1 to 10
CCC[C@H](NC(C)=O)C(=O)N[C@@H](Cc1c[nH]c2ccccc12)C(=O)N[C@H](C(=O)N[C@H](C(=O)N[C@H]1CSSC[C@@H](C(=O)N[C@@H](Cc2c[nH]c3ccccc23)C(=O)N2CCC[C@H]2C(N)=O)NC(=O)[C@H](CC(=O)O)NC(=O)[C@H](Cc2cnc[nH]2)NC(=O)[C@H](Cc2c[nH]c3ccccc23)NC(=O)[C@H](CC(N)=O)NC(=O)[C@H](CC(N)=O)NC1=O)[C@@H](C)CC)[C@@H](C)O [compound 440, Ac-(L-Nva)-W-T-I-C(3)-N-N-W-H-D-C(3)-W-P-CONH2] (Ac-[Nva]WTICNNWHDCWP-NH2; disulfide 5-11)	10 to 100

Continued, values first:

Kd [nM]	Compound
< 1	CC(=O)N[C@@H](Cc1c[nH]c2ccccc12)C(=O)N[C@H](C(=O)N(C)[C@@H](CC(C)(C)C)C(=O)N[C@H]1CSCSC[C@@H](C(=O)N[C@@H](Cc2c[nH]c3ccccc23)C(=O)N2CCC[C@H]2C(N)=O)NC(=O)[C@H](CC(=O)O)NC(=O)[C@H](CCCCNC(=O)CN2CCN(CC(=O)O)CCN(CC(=O)O)CCN(CC(=O)O)CC2)NC(=O)[C@H](Cc2ccc3ccccc3c2)NC(=O)[C@H](CC(N)=O)NC(=O)[C@H](CC2CCN(C(=O)CCOCCOCC[N+](C)(C)C)CC2)NC1=O)[C@@H](C)O [compound 448] (Ac-WT[NMetBuAla]C[Ala(piperidin-4-yl)](Me3N+(CH2)2O(CH2)2O(CH2)2CO)N[2Nal]K(DOTA)DCWP-NH2; linker 4-10 via CH2)
< 1	COc1cccc2c(C[C@H](NC(C)=O)C(=O)N[C@H](C(=O)N[C@H](C(=O)N[C@H]3CSSC[C@@H](C(=O)N[C@@H](Cc4c[nH]c5ccccc45)C(=O)N4CCC[C@H]4C(N)=O)NC(=O)[C@H](CC(=O)O)NC(=O)[C@H](CCCCNC(=O)CN4CCN(CC(=O)O)CCN(CC(=O)O)CCN(CC(=O)O)CC4)NC(=O)[C@H](Cc4ccc5ccccc5c4)NC(=O)[C@H](CC(N)=O)NC(=O)[C@H](CC4CCNCC4)NC3=O)C3CCCCC3)[C@@H](C)O)c[nH]c12 [compound 405, Ac-(7MeO-Trp)-T-(Chg)-C(3)-[3-(4-piperidinyl)-Ala]-N-(2Nal)-Lys(DOTA)-D-C(3)-W-P-CONH2] (Ac-[Trp(7-OMe)]T[Chg]C[Ala(piperidin-4-yl)]N[2Nal]K(DOTA)DCWP-NH2; disulfide 4-10)
< 1	CSCC[C@H](NC(=O)c1ccc(CNC(=O)CN2CCN(CC(=O)O)CCN(CC(=O)O)CCN(CC(=O)O)CC2)cc1)C(=O)N[C@H](C(=O)N[C@@H](CCCCNC(=O)CC[C@@H]1NC(=O)[C@H](Cc2ccc3ccccc3c2)NC(=O)[C@H](CC(N)=O)NC(=O)[C@H](CC2CCNCC2)NC(=O)[C@@H](NC(=O)[C@@H](NC(=O)[C@@H](NC(=O)[C@H](Cc2c[nH]c3ccccc23)NC(C)=O)[C@@H](C)O)C2CCCCC2)CSSC[C@@H](C(=O)N[C@@H](Cc2c[nH]c3ccccc23)C(=O)N2CCC[C@H]2C(N)=O)NC(=O)[C@H](CC(=O)O)NC1=O)C(=O)O)C(C)C [compound 381, Ac-W-T-(Chg)-C(3)-[3-(4-piperidinyl)-Ala]-N-(2Nal)-[Glu(gLys(OH)-Val-Met-AmBz-DOTA)]-D-C(3)-W-P-CONH2] (Ac-WT[Chg]C[Ala(piperidin-4-yl)]N[2Nal]E(X9)DCWP-NH2; disulfide 4-10)
< 1	CC(=O)N[C@@H](Cc1c[nH]c2ccccc12)C(=O)N[C@H](C(=O)N[C@@H](CC(C)(C)C)C(=O)N[C@H]1CSCSC[C@@H](C(=O)N[C@@H](Cc2c[nH]c3ccccc23)C(=O)N2CCC[C@@]2(C)C(=O)O)NC(=O)[C@H](CC(=O)O)NC(=O)[C@H](CCCCNC(=O)CN2CCN(CC(=O)O)CCN(CC(=O)O)CCN(CC(=O)O)CC2)NC(=O)[C@H](Cc2ccc3ccccc3c2)NC(=O)[C@H](CC(N)=O)NC(=O)[C@H](CC2CCNCC2)NC1=O)[C@@H](C)O [compound 436, Ac-W-T-(t-Bu-Ala)-C(1)-[3-(4-piperidinyl)-Ala]-N-(2Nal)-Lys(DOTA)-D-C(1)-W-(aMe-P)-COOH] (Ac-WT[tBuAla]C[Ala(piperidin-4-yl)]N[2Nal]K(DOTA)DCW[αMeP]-OH; linker 4-10 via CH2)
